Results as given in PubChem BioAssay AID1963964 (Molecular Pharmacology Branch, DTP, NCI, 2024).

Tested on: 997726-040-R-J2-PDC tumor spheroids, viability
Assay: Anticancer human tumor 997726-040-R-J2-PDC patient-derived squamous cell lung carcinoma cell line growth inhibition [PI3K]
Settings: spheroids with HUVEC and MSC; for IC50: curve of first compound; for viability, T/C: stronger effect = lower value
In short: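 Multi-cell spheroids combine tumor cells with HUVEC and human MSCs, treated with targeted agents alone or with inavolisib, alpelisib, duvelisib or copanlisib. Concentrations fall in half-log steps from at or near clinical Cmax, or from 10 microM where Cmax is unknown; viability read-out.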

[1] = second compound 0.00316 µM, first compound 0.0316 µM
[2] = second compound 0.00316 µM, first compound 0.1 µM
[3] = second compound 0.00316 µM, first compound 0.316 µM
[4] = second compound 0.00316 µM, first compound 1 µM
[5] = second compound 0.00316 µM, first compound 3.16 µM
[6] = second compound 0.00316 µM, first compound 10 µM
[7] = second compound 0.01 µM, first compound 0.0316 µM
[8] = second compound 0.01 µM, first compound 0.1 µM
[9] = second compound 0.01 µM, first compound 0.316 µM
[10] = second compound 0.01 µM, first compound 1 µM
[11] = second compound 0.01 µM, first compound 3.16 µM
[12] = second compound 0.01 µM, first compound 10 µM
[13] = second compound 0.0316 µM, first compound 0.0316 µM
[14] = second compound 0.0316 µM, first compound 0.1 µM
[15] = second compound 0.0316 µM, first compound 0.316 µM
[16] = second compound 0.0316 µM, first compound 1 µM
[17] = second compound 0.0316 µM, first compound 3.16 µM
[18] = second compound 0.0316 µM, first compound 10 µM
[19] = second compound 0.1 µM, first compound 0.0316 µM
[20] = second compound 0.1 µM, first compound 0.1 µM
[21] = second compound 0.1 µM, first compound 0.316 µM
[22] = second compound 0.1 µM, first compound 1 µM
[23] = second compound 0.1 µM, first compound 3.16 µM
[24] = second compound 0.1 µM, first compound 10 µM
[25] = second compound 0.316 µM, first compound 0.0316 µM
[26] = second compound 0.316 µM, first compound 0.1 µM
[27] = second compound 0.316 µM, first compound 0.316 µM
[28] = second compound 0.316 µM, first compound 1 µM
[29] = second compound 0.316 µM, first compound 3.16 µM
[30] = second compound 0.316 µM, first compound 10 µM
[31] = second compound 1 µM, first compound 0.0316 µM
[32] = second compound 1 µM, first compound 0.1 µM
[33] = second compound 1 µM, first compound 0.316 µM
[34] = second compound 1 µM, first compound 1 µM
[35] = second compound 1 µM, first compound 3.16 µM
[36] = second compound 1 µM, first compound 10 µM
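Further: spheroids exposed to compounds for seven days before readout.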

Question: Which IC50 (second compound 0.00316 µM) does the source give for `CC1(C)CCC(CN2CCN(c3ccc(C(=O)NS(=O)(=O)c4ccc(NCC5CCOCC5)c([N+](=O)[O-])c4)c(Oc4cnc5[nH]ccc5c4)c3)CC2)=C(c2ccc(Cl)cc2)C1` + COc1c(OCCCN2CCOCC2)ccc2c3n(c(=NC(=O)c4cnc(N)nc4)nc12)CCN3 here?
Answer: 6890 nM

Question: And the IC50 (second compound 0.01 µM)?
Answer: 4200 nM

Question: And the IC50 (second compound 0.0316 µM)?
Answer: < 31.6 nM

Question: And the IC50 (second compound 0.1 µM)?
Answer: < 31.6 nM

Question: What about the IC50 (second compound 0.316 µM) of the same compound?
Answer: < 31.6 nM

Question: And the IC50 (second compound 1 µM)?
Answer: < 31.6 nM

Question: And the viability, T/C [1]?
Answer: 75.4%

Question: And the viability, T/C [2]?
Answer: 77.4%

Question: And the viability, T/C [3]?
Answer: 74.3%

Question: And the viability, T/C [4]?
Answer: 81.1%

Question: What about the viability, T/C [5] of the same compound?
Answer: 78.2%

Question: And the viability, T/C [6]?
Answer: 36.9%

Question: What about the viability, T/C [7] of the same compound?
Answer: 62%

Question: And the viability, T/C [8]?
Answer: 64.6%

Question: And the viability, T/C [9]?
Answer: 68.4%

Question: What about the viability, T/C [10] of the same compound?
Answer: 60.7%

Question: What about the viability, T/C [11] of the same compound?
Answer: 57.4%

Question: What about the viability, T/C [12] of the same compound?
Answer: 28.9%

Question: And the viability, T/C [13]?
Answer: 35.3%

Question: And the viability, T/C [14]?
Answer: 36.5%

Question: And the viability, T/C [15]?
Answer: 37.8%

Question: And the viability, T/C [16]?
Answer: 37.7%

Question: What about the viability, T/C [17] of the same compound?
Answer: 34.3%

Question: What about the viability, T/C [18] of the same compound?
Answer: 21.2%

Question: And the viability, T/C [19]?
Answer: 23.1%

Question: And the viability, T/C [20]?
Answer: 22.9%

Question: What about the viability, T/C [21] of the same compound?
Answer: 21.8%

Question: What about the viability, T/C [22] of the same compound?
Answer: 23%

Question: What about the viability, T/C [23] of the same compound?
Answer: 20.6%

Question: What about the viability, T/C [24] of the same compound?
Answer: 9.14%

Question: And the viability, T/C [25]?
Answer: 4.52%

Question: What about the viability, T/C [26] of the same compound?
Answer: 6.09%

Question: And the viability, T/C [27]?
Answer: 3.55%

Question: And the viability, T/C [28]?
Answer: 3.55%

Question: And the viability, T/C [29]?
Answer: 3.34%

Question: And the viability, T/C [30]?
Answer: 2.27%

Question: And the viability, T/C [31]?
Answer: 1.34%

Question: And the viability, T/C [32]?
Answer: 1.27%

Question: What about the viability, T/C [33] of the same compound?
Answer: 0.77%

Question: And the viability, T/C [34]?
Answer: 0.81%

Question: What about the viability, T/C [35] of the same compound?
Answer: 1.49%

Question: What about the viability, T/C [36] of the same compound?
Answer: 1.38%

Question: Which IC50 (second compound 0.00316 µM) does the source give for `C[C@@H](NC(=O)c1ncnc(N)c1Cl)c1ncc(C(=O)Nc2cc(C(F)(F)F)c(Cl)cn2)s1` + COc1c(OCCCN2CCOCC2)ccc2c3n(c(=NC(=O)c4cnc(N)nc4)nc12)CCN3 here?
Answer: > 10000 nM

Question: What about the IC50 (second compound 0.01 µM) of the same compound?
Answer: > 10000 nM

Question: What about the IC50 (second compound 0.0316 µM) of the same compound?
Answer: < 31.6 nM

Question: And the IC50 (second compound 0.1 µM)?
Answer: < 31.6 nM

Question: And the IC50 (second compound 0.316 µM)?
Answer: < 31.6 nM

Question: What about the IC50 (second compound 1 µM) of the same compound?
Answer: < 31.6 nM

Question: And the viability, T/C [1]?
Answer: 79.8%

Question: What about the viability, T/C [2] of the same compound?
Answer: 104%

Question: What about the viability, T/C [3] of the same compound?
Answer: 93.6%

Question: What about the viability, T/C [4] of the same compound?
Answer: 96.8%

Question: And the viability, T/C [5]?
Answer: 86%

Question: What about the viability, T/C [6] of the same compound?
Answer: 57.2%

Question: What about the viability, T/C [7] of the same compound?
Answer: 64.1%

Question: What about the viability, T/C [8] of the same compound?
Answer: 71.6%

Question: And the viability, T/C [9]?
Answer: 66.7%

Question: What about the viability, T/C [10] of the same compound?
Answer: 68.9%

Question: What about the viability, T/C [11] of the same compound?
Answer: 58.2%

Question: What about the viability, T/C [12] of the same compound?
Answer: 54.8%

Question: What about the viability, T/C [13] of the same compound?
Answer: 44%

Question: What about the viability, T/C [14] of the same compound?
Answer: 42.9%

Question: And the viability, T/C [15]?
Answer: 45.7%

Question: And the viability, T/C [16]?
Answer: 47.9%

Question: What about the viability, T/C [17] of the same compound?
Answer: 39.6%

Question: What about the viability, T/C [18] of the same compound?
Answer: 34.1%

Question: And the viability, T/C [19]?
Answer: 26.7%

Question: And the viability, T/C [20]?
Answer: 25.6%

Question: What about the viability, T/C [21] of the same compound?
Answer: 27.1%

Question: What about the viability, T/C [22] of the same compound?
Answer: 29.2%

Question: What about the viability, T/C [23] of the same compound?
Answer: 25.6%

Question: What about the viability, T/C [24] of the same compound?
Answer: 19.2%

Question: And the viability, T/C [25]?
Answer: 6.28%

Question: What about the viability, T/C [26] of the same compound?
Answer: 6%

Question: What about the viability, T/C [27] of the same compound?
Answer: 7.45%

Question: What about the viability, T/C [28] of the same compound?
Answer: 7.98%

Question: And the viability, T/C [29]?
Answer: 5.89%

Question: What about the viability, T/C [30] of the same compound?
Answer: 3.91%

Question: And the viability, T/C [31]?
Answer: 2.28%

Question: And the viability, T/C [32]?
Answer: 1.55%

Question: What about the viability, T/C [33] of the same compound?
Answer: 1.77%

Question: What about the viability, T/C [34] of the same compound?
Answer: 1.89%

Question: And the viability, T/C [35]?
Answer: 1.41%

Question: And the viability, T/C [36]?
Answer: 0.66%

Question: For `Cn1ncnc1[C@H]1c2n[nH]c(=O)c3cc(F)cc(c23)N[C@@H]1c1ccc(F)cc1` + COc1c(OCCCN2CCOCC2)ccc2c3n(c(=NC(=O)c4cnc(N)nc4)nc12)CCN3, which IC50 (second compound 0.00316 µM) is on record?
Answer: > 100 nM

Question: And the IC50 (second compound 0.01 µM)?
Answer: > 100 nM

Question: And the IC50 (second compound 0.0316 µM)?
Answer: < 0.316 nM

Question: And the IC50 (second compound 0.1 µM)?
Answer: < 0.316 nM

Question: What about the IC50 (second compound 0.316 µM) of the same compound?
Answer: < 0.316 nM

Question: What about the IC50 (second compound 1 µM) of the same compound?
Answer: < 0.316 nM

Question: What about the viability, T/C (second compound 0.00316 µM, first compound 0.000316 µM) of the same compound?
Answer: 76.4%

Question: And the viability, T/C (second compound 0.00316 µM, first compound 0.001 µM)?
Answer: 77%

Question: What about the viability, T/C (second compound 0.00316 µM, first compound 0.00316 µM) of the same compound?
Answer: 75.6%

Question: What about the viability, T/C (second compound 0.00316 µM, first compound 0.01 µM) of the same compound?
Answer: 82.9%

Question: And the viability, T/C [1]?
Answer: 77.6%

Question: What about the viability, T/C [2] of the same compound?
Answer: 70.5%

Question: What about the viability, T/C (second compound 0.01 µM, first compound 0.000316 µM) of the same compound?
Answer: 52%

Question: What about the viability, T/C (second compound 0.01 µM, first compound 0.001 µM) of the same compound?
Answer: 56.6%

Question: And the viability, T/C (second compound 0.01 µM, first compound 0.00316 µM)?
Answer: 61.1%

Question: And the viability, T/C (second compound 0.01 µM, first compound 0.01 µM)?
Answer: 54.8%

Question: What about the viability, T/C [7] of the same compound?
Answer: 64.2%

Question: What about the viability, T/C [8] of the same compound?
Answer: 58.1%

Question: And the viability, T/C (second compound 0.0316 µM, first compound 0.000316 µM)?
Answer: 33.7%

Question: And the viability, T/C (second compound 0.0316 µM, first compound 0.001 µM)?
Answer: 35.3%

Question: And the viability, T/C (second compound 0.0316 µM, first compound 0.00316 µM)?
Answer: 33.7%

Question: And the viability, T/C (second compound 0.0316 µM, first compound 0.01 µM)?
Answer: 37.1%

Question: What about the viability, T/C [13] of the same compound?
Answer: 34.1%

Question: And the viability, T/C [14]?
Answer: 36.5%

Question: And the viability, T/C (second compound 0.1 µM, first compound 0.000316 µM)?
Answer: 25.1%

Question: And the viability, T/C (second compound 0.1 µM, first compound 0.001 µM)?
Answer: 22.2%

Question: And the viability, T/C (second compound 0.1 µM, first compound 0.00316 µM)?
Answer: 26.5%

Question: What about the viability, T/C (second compound 0.1 µM, first compound 0.01 µM) of the same compound?
Answer: 23.1%

Question: And the viability, T/C [19]?
Answer: 23.2%

Question: And the viability, T/C [20]?
Answer: 22.6%

Question: And the viability, T/C (second compound 0.316 µM, first compound 0.000316 µM)?
Answer: 5.23%

Question: And the viability, T/C (second compound 0.316 µM, first compound 0.001 µM)?
Answer: 5.9%

Question: What about the viability, T/C (second compound 0.316 µM, first compound 0.00316 µM) of the same compound?
Answer: 5.66%

Question: And the viability, T/C (second compound 0.316 µM, first compound 0.01 µM)?
Answer: 5.44%

Question: And the viability, T/C [25]?
Answer: 5.95%

Question: And the viability, T/C [26]?
Answer: 5.09%

Question: What about the viability, T/C (second compound 1 µM, first compound 0.000316 µM) of the same compound?
Answer: 1.25%

Question: And the viability, T/C (second compound 1 µM, first compound 0.001 µM)?
Answer: 1.22%

Question: And the viability, T/C (second compound 1 µM, first compound 0.00316 µM)?
Answer: 1.38%

Question: What about the viability, T/C (second compound 1 µM, first compound 0.01 µM) of the same compound?
Answer: 1.16%

Question: And the viability, T/C [31]?
Answer: 1.33%

Question: What about the viability, T/C [32] of the same compound?
Answer: 1.04%
